# Peptide text beside a SMILES is read from it.
# Target: Neuronal acetylcholine receptor; alpha9/alpha10 (Homo sapiens, UniProt Q9GZZ6+Q9UGM1)
# Experiment: Inhibition of human alpha9/alpha10 nACHR (1:1) expressed in Xenopus laevis oocyte assessed as inhibition of ACh induced channel current measured for 2 to 5 days at -80 mV holding potential by two electrode voltage clamp method
# Sequence of Neuronal acetylcholine receptor; alpha9/alpha10 (Q9UGM1 whole entry): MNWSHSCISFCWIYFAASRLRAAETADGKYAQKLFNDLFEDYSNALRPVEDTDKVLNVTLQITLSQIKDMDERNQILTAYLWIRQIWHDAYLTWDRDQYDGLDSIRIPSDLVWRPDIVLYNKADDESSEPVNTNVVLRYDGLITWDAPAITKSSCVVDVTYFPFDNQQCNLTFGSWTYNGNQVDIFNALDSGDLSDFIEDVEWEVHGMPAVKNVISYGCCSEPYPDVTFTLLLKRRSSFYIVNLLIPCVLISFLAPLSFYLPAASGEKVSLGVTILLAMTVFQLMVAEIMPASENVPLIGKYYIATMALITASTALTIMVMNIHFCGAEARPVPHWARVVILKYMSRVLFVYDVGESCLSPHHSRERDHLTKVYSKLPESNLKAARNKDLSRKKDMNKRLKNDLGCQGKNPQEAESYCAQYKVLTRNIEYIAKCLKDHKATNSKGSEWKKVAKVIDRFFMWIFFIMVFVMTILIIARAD
# Sequence of Neuronal acetylcholine receptor; alpha9/alpha10 (Q9GZZ6 whole entry): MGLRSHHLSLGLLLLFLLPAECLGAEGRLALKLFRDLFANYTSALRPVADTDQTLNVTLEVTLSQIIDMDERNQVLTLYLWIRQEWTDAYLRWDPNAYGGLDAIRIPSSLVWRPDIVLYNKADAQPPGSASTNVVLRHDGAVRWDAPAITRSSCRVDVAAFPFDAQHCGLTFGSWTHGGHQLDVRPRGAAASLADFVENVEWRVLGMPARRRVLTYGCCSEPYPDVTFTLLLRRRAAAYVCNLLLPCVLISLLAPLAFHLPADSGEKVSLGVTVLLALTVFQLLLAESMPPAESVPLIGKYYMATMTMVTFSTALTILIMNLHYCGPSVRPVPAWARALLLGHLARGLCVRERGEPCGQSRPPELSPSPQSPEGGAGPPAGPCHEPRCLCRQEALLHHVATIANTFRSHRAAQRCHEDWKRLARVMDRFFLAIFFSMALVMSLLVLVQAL
structure (smiles),measurement,value
"CC(C)[C@@H]1NC(=O)[C@H](CO)NC(=O)[C@@H]2CSSC[C@H](NC(=O)CN)C(=O)N[C@@H](CSSC[C@@H](C(N)=O)NC(=O)[C@H](CCCCN)NC(=O)[C@H](CC(N)=O)NC(=O)[C@@H]3CCCN3C(=O)[C@H](Cc3ncc[nH]3)NC(=O)[C@H](CC(=O)O)NC1=O)C(=O)N[C@@H](CO)C(=O)N[C@@H](Cc1ncc[nH]1)C(=O)N1CCC[C@H]1C(=O)N[C@@H](C)C(=O)N2 (HELM PEPTIDE1{G.C.C.S.[O=C([C@H](Cc1ncc[nH]1)N[*:1])[*:2]].P.A.C.S.V.D.[O=C([C@H](Cc1ncc[nH]1)N[*:1])[*:2]].P.N.K.C.[am]}$PEPTIDE1,PEPTIDE1,2:R3-8:R3|PEPTIDE1,PEPTIDE1,3:R3-16:R3$$$V2.0)",IC50,22.2 µM
